The values below come from ChEMBL document CHEMBL4330132, “5-Keto-3-cyano-2,4-diaminothiophenes as selective maternal embryonic leucine zipper kinase inhibitors” (Bioorg Med Chem Lett, 2019).

pIC50: −log10 of the molar value.

As usually defined, the pIC50 is −log10 of the IC50, conventionally taken in molar units.

The target in test [1] is Casein kinase I isoform alpha-like (Homo sapiens) (UniProt Q8N752). The test is described as follows: Binding affinity to wild-type human full length CSNK1A1L (M1 to N337 residues) expressed in bacterial expression system assessed as residual binding level at 1 uM by Kinomescan method relative to control.
The target of test [2] is Ribosomal protein S6 kinase alpha-5 (Homo sapiens) (UniProt O75582). The test is described as follows: Binding affinity to wild-type human partial length C-terminal RPS6KA5 kinase domain 2 (V390 to T718 residues) expressed in bacterial expression system assessed as residual binding level at 1 uM by Kinomescan method relative to control.
The target in test [3] is Proto-oncogene tyrosine-protein kinase receptor Ret (Homo sapiens) (UniProt P07949). The test is described as follows: Binding affinity to wild-type human partial length RET (E713 to D1014 residues) expressed in bacterial expression system assessed as residual binding level at 1 uM by Kinomescan method relative to control.
Test [4] concerns the target Proto-oncogene tyrosine-protein kinase Src (Homo sapiens) (UniProt P12931). The test is described as follows: Binding affinity to wild-type human partial length SRC (L240 to L536 residues) expressed in bacterial expression system assessed as residual binding level at 1 uM by Kinomescan method relative to control.
Test [5] concerns the target Bone morphogenetic protein receptor type-1A (Homo sapiens) (UniProt P36894). The test is described as follows: Binding affinity to wild-type human partial length BMPR1A (Q214 to I532 residues) expressed in bacterial expression system assessed as residual binding level at 1 uM by Kinomescan method relative to control.
Test [6] addresses NUAK family SNF1-like kinase 2 (Homo sapiens) (UniProt Q9H093). As to the kind of experiment: Binding affinity to wild-type human partial length SNARK (P22 to A333 residues) expressed in mammalian expression system assessed as residual binding level at 1 uM by Kinomescan method relative to control.
For test [7], the target named is Mitogen-activated protein kinase 15 (Homo sapiens) (UniProt Q8TD08). As to the kind of experiment: Binding affinity to wild-type human partial length ERK8 (M1 to P437 residues) expressed in bacterial expression system assessed as residual binding level at 1 uM by Kinomescan method relative to control.
Test [8] has as its target Homeodomain-interacting protein kinase 4 (Homo sapiens) (UniProt Q8NE63). The test is described as follows: Binding affinity to wild-type human partial length HIPK4 (M1 to V384 residues) expressed in bacterial expression system assessed as residual binding level at 1 uM by Kinomescan method relative to control.
The target in test [9] is Uncharacterized serine/threonine-protein kinase SBK3 (Homo sapiens) (UniProt P0C264). The test is described as follows: Binding affinity to wild-type human partial length SgK110 (L22 to R329 residues) expressed in bacterial expression system assessed as residual binding level at 1 uM by Kinomescan method relative to control.
Test [10] has as its target Vascular endothelial growth factor receptor 1 (Homo sapiens) (UniProt P17948). As to the kind of experiment: Binding affinity to wild-type human partial length FLT1 (R781 to F1239 residues) expressed in bacterial expression system assessed as residual binding level at 1 uM by Kinomescan method relative to control.
In test [11] the target is cGMP-dependent protein kinase 1 (Homo sapiens) (UniProt Q13976). The test is described as follows: Binding affinity to wild-type human partial length PRKG1 (L339 to F686 residues) expressed in bacterial expression system assessed as residual binding level at 1 uM by Kinomescan method relative to control.
Test [12] concerns the target Mitogen-activated protein kinase 10 (Homo sapiens) (UniProt P53779). As to the kind of experiment: Binding affinity to wild-type human partial length JNK3 (V28 to Q422 residues) expressed in mammalian expression system assessed as residual binding level at 1 uM by Kinomescan method relative to control.
The target in test [13] is Ribosomal protein S6 kinase alpha-1 (Homo sapiens) (UniProt Q15418). As to the kind of experiment: Binding affinity to wild-type human partial length C-terminal RSK1 kinase domain 2 (P360 to L681 residues) expressed in bacterial expression system assessed as residual binding level at 1 uM by Kinomescan method relative to control.
Test [14] concerns the target Serine/threonine-protein kinase ULK2 (Homo sapiens) (UniProt Q8IYT8). The test is described as follows: Binding affinity to wild-type human partial length ULK2 (M1 to S301 residues) expressed in mammalian expression system assessed as residual binding level at 1 uM by Kinomescan method relative to control.
The target of test [15] is Protein kinase C eta type (Homo sapiens) (UniProt P24723). The test is described as follows: Binding affinity to wild-type human partial length PRKCH (S324 to P683 residues) expressed in bacterial expression system assessed as residual binding level at 1 uM by Kinomescan method relative to control.
Test [16] concerns the target Dual specificity protein kinase CLK4 (Homo sapiens) (UniProt Q9HAZ1). As to the kind of experiment: Binding affinity to wild-type human partial length CLK4 (R135 to K481 residues) expressed in bacterial expression system assessed as residual binding level at 1 uM by Kinomescan method relative to control.
Test [17] deals with Cyclin-dependent kinase-like 1 (Homo sapiens) (UniProt Q00532). As to the kind of experiment: Binding affinity to wild-type human full length CDKL1 (M1 to I358 residues) expressed in mammalian expression system assessed as residual binding level at 1 uM by Kinomescan method relative to control.
The target of test [18] is Tyrosine-protein kinase ITK/TSK (Homo sapiens) (UniProt Q08881). As to the kind of experiment: Binding affinity to wild-type human partial length ITK (R335 to L620 residues) expressed in bacterial expression system assessed as residual binding level at 1 uM by Kinomescan method relative to control.
Test [19] has as its target Interleukin-1 receptor-associated kinase 1 (Homo sapiens) (UniProt P51617). As to the kind of experiment: Binding affinity to wild-type human partial length IRAK1 (R194 to S712 residues) expressed in mammalian expression system assessed as residual binding level at 1 uM by Kinomescan method relative to control.
Test [20] has as its system Tyrosine-protein kinase ABL1 (Homo sapiens), P00519 [E255K]. The test is described as follows: Binding affinity to human phosphorylated ABL1 E255K mutant (S229 to K512 residues) expressed in mammalian expression system assessed as residual binding level at 1 uM by Kinomescan method relative to control.
Test [21] addresses Mitogen-activated protein kinase kinase kinase kinase 2 (Homo sapiens) (UniProt Q12851). As to the kind of experiment: Binding affinity to wild-type human partial length MAP4K2 (M1 to G318 residues) expressed in mammalian expression system assessed as residual binding level at 1 uM by Kinomescan method relative to control.
Test [22] deals with Maternal embryonic leucine zipper kinase (Homo sapiens, UniProt Q14680). The test is described as follows: Inhibition of recombinant human MELK expressed in Escherichia coli using ZIPtide as substrate measured after 0.5 hrs by ADP-Glo assay. (In general: In ADP-Glo the light output rises with the ADP produced.)
Test [23] concerns the target Mitogen-activated protein kinase kinase kinase kinase 3 (Homo sapiens) (UniProt Q8IVH8). The test is described as follows: Binding affinity to wild-type human partial length MAP4K3 (M1 to D301 residues) expressed in bacterial expression system assessed as residual binding level at 1 uM by Kinomescan method relative to control.
In test [24] the target is BDNF/NT-3 growth factors receptor (Homo sapiens) (UniProt Q16620). As to the kind of experiment: Binding affinity to wild-type human partial length TRKB (Q547 to G838 residues) expressed in mammalian expression system assessed as residual binding level at 1 uM by Kinomescan method relative to control.

Sequence of Mitogen-activated protein kinase kinase kinase kinase 3 (Homo sapiens) (Q8IVH8 whole entry, the tested form may be a part): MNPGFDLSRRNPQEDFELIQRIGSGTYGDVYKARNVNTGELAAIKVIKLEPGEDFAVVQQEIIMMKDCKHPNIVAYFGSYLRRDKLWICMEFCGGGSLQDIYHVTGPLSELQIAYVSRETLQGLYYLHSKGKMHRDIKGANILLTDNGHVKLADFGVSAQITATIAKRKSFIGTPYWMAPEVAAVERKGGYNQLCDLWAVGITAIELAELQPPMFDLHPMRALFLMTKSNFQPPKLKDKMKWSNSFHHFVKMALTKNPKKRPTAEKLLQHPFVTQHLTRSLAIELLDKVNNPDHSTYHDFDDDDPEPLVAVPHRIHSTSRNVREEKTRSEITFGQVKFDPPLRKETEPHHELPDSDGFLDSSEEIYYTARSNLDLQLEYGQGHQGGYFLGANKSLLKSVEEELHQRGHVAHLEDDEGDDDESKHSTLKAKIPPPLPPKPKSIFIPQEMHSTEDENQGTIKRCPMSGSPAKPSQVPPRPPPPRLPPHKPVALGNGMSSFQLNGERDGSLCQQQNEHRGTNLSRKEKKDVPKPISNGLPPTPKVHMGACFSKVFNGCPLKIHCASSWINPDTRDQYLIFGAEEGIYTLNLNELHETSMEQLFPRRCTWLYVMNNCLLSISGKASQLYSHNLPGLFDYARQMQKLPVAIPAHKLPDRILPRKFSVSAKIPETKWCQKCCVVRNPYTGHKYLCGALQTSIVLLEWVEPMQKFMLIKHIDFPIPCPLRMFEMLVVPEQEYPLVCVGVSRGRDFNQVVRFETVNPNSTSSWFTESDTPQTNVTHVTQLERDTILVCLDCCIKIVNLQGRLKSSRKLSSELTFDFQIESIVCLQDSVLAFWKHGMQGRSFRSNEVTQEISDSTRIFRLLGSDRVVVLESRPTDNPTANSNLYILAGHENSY
Sequence of Homeodomain-interacting protein kinase 4 (Homo sapiens) (Q8NE63 whole entry, the tested form may be a part): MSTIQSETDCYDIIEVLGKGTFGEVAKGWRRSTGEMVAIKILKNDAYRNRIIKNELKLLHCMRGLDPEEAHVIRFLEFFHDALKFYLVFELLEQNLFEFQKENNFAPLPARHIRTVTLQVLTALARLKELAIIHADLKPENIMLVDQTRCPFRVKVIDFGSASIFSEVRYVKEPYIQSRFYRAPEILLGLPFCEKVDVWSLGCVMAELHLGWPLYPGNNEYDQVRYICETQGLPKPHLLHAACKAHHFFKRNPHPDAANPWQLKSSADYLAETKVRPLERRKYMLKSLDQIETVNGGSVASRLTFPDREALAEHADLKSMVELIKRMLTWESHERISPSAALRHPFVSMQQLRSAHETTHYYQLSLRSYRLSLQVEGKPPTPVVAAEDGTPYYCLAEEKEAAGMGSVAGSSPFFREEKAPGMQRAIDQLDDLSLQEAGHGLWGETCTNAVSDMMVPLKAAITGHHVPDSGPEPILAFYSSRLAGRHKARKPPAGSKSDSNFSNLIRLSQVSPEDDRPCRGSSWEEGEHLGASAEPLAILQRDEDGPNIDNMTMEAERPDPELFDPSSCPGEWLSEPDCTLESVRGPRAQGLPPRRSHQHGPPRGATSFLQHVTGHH
Sequence of Cyclin-dependent kinase-like 1 (Homo sapiens) (Q00532 whole entry, the tested form may be a part): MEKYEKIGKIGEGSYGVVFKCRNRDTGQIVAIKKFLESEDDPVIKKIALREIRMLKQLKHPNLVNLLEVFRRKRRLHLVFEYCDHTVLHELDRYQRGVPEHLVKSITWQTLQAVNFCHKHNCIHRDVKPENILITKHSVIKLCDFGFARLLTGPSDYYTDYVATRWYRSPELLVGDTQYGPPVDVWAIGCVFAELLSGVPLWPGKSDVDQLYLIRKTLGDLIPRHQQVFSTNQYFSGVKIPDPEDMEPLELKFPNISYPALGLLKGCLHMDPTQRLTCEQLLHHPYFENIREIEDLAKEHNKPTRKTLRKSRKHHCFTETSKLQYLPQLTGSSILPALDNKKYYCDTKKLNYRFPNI
Sequence of Tyrosine-protein kinase ABL1 (Homo sapiens), P00519 [E255K] (P00519 whole entry E255K, the tested form may be a part): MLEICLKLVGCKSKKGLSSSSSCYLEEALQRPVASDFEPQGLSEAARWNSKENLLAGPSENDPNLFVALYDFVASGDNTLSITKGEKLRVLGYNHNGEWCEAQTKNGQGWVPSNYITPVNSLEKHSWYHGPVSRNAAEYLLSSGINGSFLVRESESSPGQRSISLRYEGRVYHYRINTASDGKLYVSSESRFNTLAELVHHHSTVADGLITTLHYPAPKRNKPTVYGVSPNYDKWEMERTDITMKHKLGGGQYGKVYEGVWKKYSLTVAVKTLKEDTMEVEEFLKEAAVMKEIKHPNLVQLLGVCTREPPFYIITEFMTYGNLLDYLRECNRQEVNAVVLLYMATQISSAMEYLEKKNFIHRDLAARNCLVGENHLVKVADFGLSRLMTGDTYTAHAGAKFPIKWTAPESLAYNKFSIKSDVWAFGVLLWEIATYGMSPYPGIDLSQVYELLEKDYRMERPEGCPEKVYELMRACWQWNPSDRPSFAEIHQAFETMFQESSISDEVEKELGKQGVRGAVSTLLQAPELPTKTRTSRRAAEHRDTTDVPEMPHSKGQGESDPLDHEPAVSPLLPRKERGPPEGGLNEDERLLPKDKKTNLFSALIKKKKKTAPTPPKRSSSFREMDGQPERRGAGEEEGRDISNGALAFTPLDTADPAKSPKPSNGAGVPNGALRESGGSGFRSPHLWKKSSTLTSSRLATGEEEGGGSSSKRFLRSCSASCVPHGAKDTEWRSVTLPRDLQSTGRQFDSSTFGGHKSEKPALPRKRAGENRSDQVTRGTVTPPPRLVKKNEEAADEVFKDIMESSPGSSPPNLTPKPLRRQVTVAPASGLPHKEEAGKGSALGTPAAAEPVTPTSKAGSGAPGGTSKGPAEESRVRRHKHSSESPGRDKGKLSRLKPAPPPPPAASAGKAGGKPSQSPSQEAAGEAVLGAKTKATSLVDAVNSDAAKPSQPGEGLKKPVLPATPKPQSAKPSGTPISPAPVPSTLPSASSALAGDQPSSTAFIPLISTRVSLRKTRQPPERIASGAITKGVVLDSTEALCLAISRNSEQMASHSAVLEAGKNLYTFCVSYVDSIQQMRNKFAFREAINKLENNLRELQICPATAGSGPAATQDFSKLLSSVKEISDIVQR
Sequence of Mitogen-activated protein kinase kinase kinase kinase 2 (Homo sapiens) (Q12851 whole entry, the tested form may be a part): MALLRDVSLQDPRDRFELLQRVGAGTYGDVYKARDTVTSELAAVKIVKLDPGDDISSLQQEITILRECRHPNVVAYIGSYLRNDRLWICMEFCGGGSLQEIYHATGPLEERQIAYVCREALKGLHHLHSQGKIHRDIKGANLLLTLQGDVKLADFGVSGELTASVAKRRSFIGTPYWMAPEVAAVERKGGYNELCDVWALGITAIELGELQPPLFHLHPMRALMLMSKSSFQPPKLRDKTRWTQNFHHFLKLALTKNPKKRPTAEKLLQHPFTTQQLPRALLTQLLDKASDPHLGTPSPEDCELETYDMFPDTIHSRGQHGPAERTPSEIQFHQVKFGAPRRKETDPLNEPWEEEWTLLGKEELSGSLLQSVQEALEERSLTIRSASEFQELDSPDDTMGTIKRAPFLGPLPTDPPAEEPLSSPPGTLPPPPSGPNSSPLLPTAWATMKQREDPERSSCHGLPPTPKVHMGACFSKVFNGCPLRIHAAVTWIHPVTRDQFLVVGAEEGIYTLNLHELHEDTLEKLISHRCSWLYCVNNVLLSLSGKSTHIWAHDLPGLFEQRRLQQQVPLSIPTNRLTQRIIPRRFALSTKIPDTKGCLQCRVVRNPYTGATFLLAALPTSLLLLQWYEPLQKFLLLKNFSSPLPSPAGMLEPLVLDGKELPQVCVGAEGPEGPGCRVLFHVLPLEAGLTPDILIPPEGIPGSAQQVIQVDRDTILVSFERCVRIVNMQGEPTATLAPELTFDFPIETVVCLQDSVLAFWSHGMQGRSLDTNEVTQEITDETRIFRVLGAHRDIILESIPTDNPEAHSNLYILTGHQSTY
Sequence of Serine/threonine-protein kinase ULK2 (Homo sapiens) (Q8IYT8 whole entry, the tested form may be a part): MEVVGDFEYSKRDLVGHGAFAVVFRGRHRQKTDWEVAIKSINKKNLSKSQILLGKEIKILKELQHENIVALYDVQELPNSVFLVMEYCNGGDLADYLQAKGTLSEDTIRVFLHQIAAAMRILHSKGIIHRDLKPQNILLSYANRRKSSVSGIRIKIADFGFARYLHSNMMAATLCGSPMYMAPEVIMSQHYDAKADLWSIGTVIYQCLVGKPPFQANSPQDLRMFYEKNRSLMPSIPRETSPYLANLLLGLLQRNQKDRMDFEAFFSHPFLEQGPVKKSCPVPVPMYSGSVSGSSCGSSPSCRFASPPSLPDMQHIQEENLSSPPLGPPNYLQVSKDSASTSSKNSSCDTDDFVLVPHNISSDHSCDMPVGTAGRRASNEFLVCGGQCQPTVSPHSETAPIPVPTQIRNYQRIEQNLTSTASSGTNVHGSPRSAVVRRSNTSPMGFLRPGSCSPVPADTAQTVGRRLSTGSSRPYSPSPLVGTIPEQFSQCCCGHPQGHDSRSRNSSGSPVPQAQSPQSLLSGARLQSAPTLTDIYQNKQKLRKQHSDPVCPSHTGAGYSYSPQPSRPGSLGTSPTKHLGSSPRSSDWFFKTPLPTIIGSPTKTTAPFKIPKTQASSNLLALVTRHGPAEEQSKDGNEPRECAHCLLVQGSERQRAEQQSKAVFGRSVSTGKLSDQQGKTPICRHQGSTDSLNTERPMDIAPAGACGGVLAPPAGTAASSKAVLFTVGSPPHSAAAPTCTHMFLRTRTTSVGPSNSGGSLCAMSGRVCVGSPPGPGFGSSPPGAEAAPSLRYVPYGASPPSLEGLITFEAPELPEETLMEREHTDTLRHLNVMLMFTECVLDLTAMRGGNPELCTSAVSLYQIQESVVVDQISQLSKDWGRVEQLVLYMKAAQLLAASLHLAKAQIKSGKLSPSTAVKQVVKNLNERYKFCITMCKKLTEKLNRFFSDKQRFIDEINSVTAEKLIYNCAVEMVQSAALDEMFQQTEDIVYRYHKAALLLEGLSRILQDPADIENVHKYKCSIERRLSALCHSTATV

In the case of `CC(C)Nc1sc(C(=O)c2ccc(Cl)s2)c(N)c1C#N`, the Activity in test [1] stood at 91%; in [2] it was 77%; in test [3], 97%; in test [4], 83%; in test [5], 100%; in test [6], 100%. The Activity turned out to be 82% in test [7]; 80% in [8]; 100% in [9]; 76% in test [10]; 100% in [11]; 100% in test [12]. Besides, the Activity in test [13] was found to be 85%; in test [14], 100%; in [15], 84%; in [16], 88%; in test [17], 100%; in test [18] it was 93%. The Activity in test [19] is 77%; in [20] it was 100%; in test [21] it was 100%; in [23], 59%; in test [24] it was 70%. In addition, in test [22], the pIC50 is 6.72.
